Source: patent US20110182992A1, “PEPTIDES AND PEPTIDE MIMETICS TO TREAT PATHOLOGIES ASSOCIATED WITH EYE DISEASE” (priority 2008, published 2011)

Key:
ApoE null mice [1] = test: HDL and pre-beta HDL from apoE null mice fed solution-phase synthesized D-4F: inhibition of LDL-induced monocyte chemotaxis; type: in vivo, mouse; settings: ApoE null mice fed 5 micrograms in chow, bled after twelve hours; product of solution phase synthesis
Excerpt: ApoE null mice were fed 5 micrograms of the D-4F synthesized as described above (Frgmnt) or the mice were given the same amount of mouse chow without D-4F (Chow). Twelve hours after the feeding was started, the mice were bled and their plasma was fractionated on FPLC.

ApoE null mice [2] = test: Protection against LDL-induced monocyte chemotactic activity by HDL from apo E null mice given oral peptides; type: in vivo, mouse; settings: ApoE null mice, peptide in drinking water 24 hrs; murine HDL at 100 μg/ml
Excerpt: FIG. 4 illustrates protection against LDL-induced monocyte chemotactic activity by HDL from apo E null mice given oral peptides. The values are the mean±SD of the number of migrated monocytes in 9 high power fields from each of quadruple assay wells. Asterisks indicate significant difference (p<0.05) as compared to No Peptide mHDL.
After 24 hrs blood was collected, plasma fractionated by FPLC and fractions containing LDL (designated as mLDL for murine LDL) and fractions containing HDL (designated as mHDL) were separately pooled and HDL protective capacity against LDL oxidation as determined by LDL-induced monocyte chemotactic activity was determined. For the assay controls the culture wells received no lipoproteins (no additions), mLDL alone (at 200 μg cholesterol/ml), or mLDL+ standard normal human HDL (designated as Cont. h HDL, at 350 μg HDL cholesterol/ml).
For testing the murine HDL, mLDL together with murine HDL (+F mHDL or +J mHDL) were added to artery wall cell cultures. […] The murine HDL was used at 100µg cholesterol/ml.

ApoE null mice [3] = test: HDL Inflammatory Index, D-4F versus Reverse D-4F by stomach tube; type: in vivo, mouse; settings: apoE null mice, 0, 3, 6, 12 or 25 micrograms by stomach tube, blood 7 hours later
Description: Female apoE null mice were administered by stomach tube 0, 3, 6, 12, or 25 micrograms of D-4F or Reverse D-4F in 100 microliters of water. Blood was obtained 7 hours later and the plasma was fractionated by FPLC. A standard control human LDL was added to human artery wall cells at a concentration of 100 micrograms of LDL-cholesterol/mL (LDL). The resulting monocyte chemotactic activity was normalized to 1.0. […] The resulting monocyte chemotactic activity was normalized to that of the LDL added without HDL. The resulting value is the HDL Inflammatory Index. The results shown are the Mean±S.D. for the data from three separate experiments.

[4] = in vivo; cited from earlier work
ApoE null mice [5] = test: Trabecular bone mineral density, peptide in drinking water; type: in vivo, mouse; settings: drinking water for 6 weeks
LDL receptor null mice = test: HDL protective capacity in LDL receptor null mice given peptide in drinking water; type: in vivo; settings: 0.25 or 0.5 mg per ml of drinking water, 24 or 48 hrs, mouse HDL at 100 μg/ml
Description: FIG. 3 illustrates the effect of apo J peptide mimetics on HDL protective capacity in LDL receptor null mice. The values are the mean±SD of the number of migrated monocytes in 9 high power fields from each of quadruple assay wells.
D-4F designated as F, or the apoJ peptide made from D amino acids (D-J336, designated as J) was added to the drinking water of LDL receptor null mice (4 per group) at 0.25 or 0.5 mg per ml of drinking water. After 24- or 48-hrs blood was collected from the mice and their HDL was isolated and tested for its ability to protect against LDL-induced monocyte chemotactic activity. Assay controls included culture wells that received no lipoproteins (no addition), or control human LDL alone (designated as LDL, 200µg cholesterol/ml), or control LDL+ control human HDL (designated as +HDL, 350µg HDL cholesterol). For testing the mouse HDL, the control LDL was added together with mouse HDL (+F HDL or +J HDL) to artery wall cell cultures. The mouse HDL was added at 100 μg cholesterol/ml respectively.

Obese Zucker rats = test: Plasma glucose and lipid hydroperoxides (LOOH) in obese Zucker rats; type: in vivo, rat; settings: Obese Zucker rats 26 weeks of age, 5.0 mg/kg/day intraperitoneal, 10 days
Description: Obese Zucker rats 26 weeks of age were bled and then treated with daily intraperitoneal injections of D-4F (5.0 mg/kg/day). After 10 days the rats were bled again plasma glucose and lipid hydroperoxides (LOOH) were determined. *p=0.027; **p=0.0017.

[6] = mouse, in vivo
ApoE null mice [7] = test: HDL function after D-4F and/or statin in the drinking water; type: in vivo, mouse; settings: 1 μg/ml in the drinking water for 24 hours

CC(=O)N[C@H](CC(=O)O)C(=O)N[C@H](Cc1c[nH]c2ccccc12)C(=O)N[C@H](Cc1ccccc1)C(=O)N[C@H](CCCCN)C(=O)N[C@H](C)C(=O)N[C@H](Cc1ccccc1)C(=O)N[C@H](Cc1ccc(O)cc1)C(=O)N[C@H](CC(=O)O)C(=O)N[C@H](CCCCN)C(=O)N[C@@H](C(=O)N[C@H](C)C(=O)N[C@H](CCC(=O)O)C(=O)N[C@H](CCCCN)C(=O)N[C@H](Cc1ccccc1)C(=O)N[C@H](CCCCN)C(=O)N[C@H](CCC(=O)O)C(=O)N[C@H](C)C(=O)N[C@H](Cc1ccccc1)C(N)=O)C(C)C [Peptide D-4F, Ac-D-W-F-K-A-F-Y-D-K-V-A-E-K-F-K-E-A-F-NH2]
biological activity in producing HDL and pre-beta HDL that inhibit LDL-induced monocyte chemotaxis (ApoE null mice [1]): very biologically active in producing HDL and pre-beta HDL that inhibit LDL-induced monocyte chemotaxis
activity of murine HDL against LDL-induced monocyte chemotactic activity (ApoE null mice [2]): as active as 350µg/ml of normal human HDL
biological activities (HDL Inflammatory Index), D-4F versus Reverse D-4F (ApoE null mice [3]): not significantly different
side effects [4]: no side effects
trabecular bone mineral density (ApoE null mice [5]): dramatically increased trabecular bone mineral density
activity of mouse HDL in preventing control LDL from inducing artery wall cells to produce monocyte chemotactic activity (LDL receptor null mice): as active as 350 μg/ml of control human HDL
mitigation of symptoms of diabetes (plasma glucose, lipid hydroperoxides) (Obese Zucker rats): effective in mitigating symptoms of diabetes
association with pre-beta HDL and HDL [6]: rapidly associates with pre-beta HDL and HDL
time after an oral dose at which essentially non-detectable in the circulation ([6]; po): 6 h
HDL function, D-4F alone (ApoE null mice [7]): did not significantly improve HDL function
